According to patent publication US9238034B2, “FN14 antagonists and therapeutic uses thereof” (THE TRANSLATIONAL GENOMICS RESEARCH INSTITUTE, priority 2013, dated 2016):
Substitutions are numbered along the chain they refer to. In names and notes the source's numbering stands.

B1: sTWEAK Y176A: soluble form of TWEAK (amino acids K97-H249) with Y176A substitution, made by IVTT (protein, UniProt O43508 97-249, looked up, variant Y176A)
chain: KGRKTRARRAIAAHYEVHPRPGQDGAQAGVDGTVSGWEEARINSSSPLRYNRQIGEFIVTRAGLYYLYCQVHFDEGKAVALKLDLLVDGVLALRCLEEFSATAASSLGPQLRLCQVSGLLALRPGSSLRIRTLPWAHLKAAPFLTYFGLFQVH
B2: sTWEAK Y176F: soluble form of TWEAK (amino acids K97-H249) with Y176F substitution, made by IVTT (protein, UniProt O43508 97-249, looked up, variant Y176F)
chain: B1 chain with A80F

What was measured:
[1] = system: TWEAK-Fn14 signaling pathway; assay: TWEAK induced Fn14-NF-κB Luc assay, optimized 384-well HTS format; type: cell-based, human; settings: 1000 cells/well, 40 ng/mL TWEAK 8 hr, 1 hr pre-incubation
Text: Human embryonic kidney cells (HEK293) express low levels of the Fn14 receptor. We developed a cell-based assay for the Fn14-TWEAK pathway signaling events using HEK293 cells that stably co-expresses high levels of full length Fn14 receptor and a firefly luciferase reporter driven by NF-KB-response elements (Fn14-NF-KB-Luc).
We optimized HEK293 Fn14-NF-KB Luc cell line for HTS by testing TWEAK-stimulated Luc-reporting as a function of growth medium, TWEAK concentration, induction time, assay duration, cell density, and DMSO concentration. For example, we seeded HEK293 Fn14-NF-KB-Luc and control cells (HEK293 NFKB-Luc) into a 96-well plate at a density of 10,000 cells/well, in DMEM or Opti-MEM® (Reduced serum media, protein concentration 15 μg/mL) and incubated at 37 C for 24 or 48 h. We then induced them with various concentrations of TWEAK in buffer or buffer alone (PBS+1 mg/mL BSA) for 5 hr and then measured firefly luciferase levels by chemiluminescence (Bright-Glo™ Promega). […] These initial conditions formed the basis for transfer of the assay into a 384-well format and further optimization with respect to cell seeding density, induction time, and TWEAK concentration.
We achieved the same conclusion from both 96-well and 384-well format that signal-to-background and fold-inductions are increased with increasing TWEAK concentration, peaking between 40-80 ng/mL and decreased at 100 ng/mL (FIGS. 20A and 20B). […] These conditions were further refined with respect to cell density (500-2500 cells per well), induction time (4-8 hr), and two TWEAK concentrations over a series of experiments in 384-well formats.
In the majority of seeding density conditions and two different TWEAK concentrations, the assay performance improved with increasing TWEAK induction time. At 8 hours of TWEAK stimulation, the fold induction (S/B) and Z′ factor was approximately 8-fold and 0.8, respectively, and the average % CV was 6.8%. […]

TNFα induction of NF-κB = assay: TNFα induced counterscreen assay, HEK293 NF-κB Luc cells; type: cell-based, human
Text: TNFα induction of the HEK293 NF-κB cell line was used as a counterscreen. […] Furthermore, we tested the two control compounds, LY294002 and BAY11-7082, in a drug dose-response format. […] We anticipate that compounds that directly affect Fn14 oligomerization, TWEAK ligation, or signaling proteins specific to the TWEAK-Fn14 signaling pathway that drive NF-κB activation will show minimal activity in the TNFα counterscreen assay. In order to eliminate the false positive hits from the pilot screen, we further performed the counterscreen by testing 35 “positives” from the Prestwick collection against HEK293 NF-KB-Luc control cell lines induced by TNFα. From this experiment we eliminated 28 compounds that inhibited luciferase expression after TNFα induction of HEK293 NF-KB Luc cells. Thus, after counterscreen only 7 compounds appeared to be specific inhibitors to the TWEAK-Fn14 signaling pathway. […] Overall, through our pilot primary screen and counterscreen, our hit rate approached 0.6% for this targeted collection. We expect a random collection to yield a lower hit-rate, which will be further reduced through the chemoinformatic filtering for luciferase false positive artifacts. Furthermore, secondary assays will be critical as cytotoxic false positives appeared to be about 80% from our pilot screen. […]

Fn14 = target: T1, Fn14 (Homo sapiens, UniProt Q9NP84); assay: Surface Plasmon Resonance assay, Fn14-Fc sensor surface; type: binding; settings: SPR, 0 to 50 μM
T1 construct: the human Fc fragment-tagged Fn14 extracellular domain (R&D Systems) was captured
T1 sequence (Q9NP84 28-80 limits assumed): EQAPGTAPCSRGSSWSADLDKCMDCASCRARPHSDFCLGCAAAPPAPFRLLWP
Description: (§1) Surface Plasmon Resonance (SPR) Assay. The binding affinity of at least one of the compounds (e.g., L524-0366) to TWEAK and Fn14-Fx was determined using a BIAcore T100 optical biosensor (GE Healthcare) at 25 degrees Celsius at the Arizona Proteomics Consortium. Recombinant human TWEAK (20 μg/mL in 10 mM HEPES pH 7.4, 150 mM NaCl, 3 mM EDTA, 0.05% Tween 20) or recombinant human Fn14-Fc (20 μg/mL in 10 mM NaOAc pH 4.0) were covalently coupled to separate flow cells on a BIAcore CM5 sensor chip using standard amine coupling chemistry as per manufacturer's protocol. Final immobilization levels were 6000 Response Units (RU) for TWEAK and 13,000 RU for FN14-Fc. The first flow path of the chip was treated with the same coupling and blocking reagents without protein and was used as a reference for each binding cycle. Functionality of the TWEAK and the Fn14-Fc sensor surfaces were verified by injecting Fn14-Fc and TWEAK over them respectively. Serial dilutions of L524-0366 or cycloheximide (control) from 0 to 50 μM were made in running buffer (10 mM HEPES pH 7.4, 150 mM NaCl, 3 mM EDTA, 1% DMSO). […] Equilibrium dissociation constants for the small molecules were calculated by fitting the double reference subtracted data to Req=((CRmax)/(KD+C))+RI, where RI is the bulk refractive index contribution.

TWEAK = target: T2, TWEAK (Homo sapiens, UniProt O43508); assay: Surface Plasmon Resonance assay, TWEAK sensor surface; type: binding; settings: SPR, 0 to 50 μM
T2 sequence (O43508 94-249 limits assumed): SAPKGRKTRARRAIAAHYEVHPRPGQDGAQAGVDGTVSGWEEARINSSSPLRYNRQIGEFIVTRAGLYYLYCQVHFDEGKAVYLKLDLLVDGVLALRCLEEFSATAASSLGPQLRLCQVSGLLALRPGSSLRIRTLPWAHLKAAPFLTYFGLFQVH
Description: as §1

Fn14 signaling [2] = assay: NF-κB luciferase reporter assay with sTWEAK variants, HEK293 NF-κB luciferase cells; type: cell-based, human; settings: 5 hr
Description: (§2) NF-κB luciferase reporter Assay. The capacity of sTWEAK or sTWEAK variants to activate Fn14 signaling was evaluated using engineered reporter cell lines that express luciferase upon NF-κB activation. Two reporter cell lines were utilized for these experiments. HEK293 NF-κB luciferase (courtesy of Dr. Jeff Winkles) were generated by transfecting HEK293 cells with a reporter plasmid containing 5 copies of a consensus NF-κB binding site upstream of a minimal CMV promoter driving expression of firefly luciferase. The second cell line, designated HEK293 NF-κB luciferase Fn14 FL, was generated by stably transfecting the HEK293 NF-κB luciferase cell line with full length Fn14. To assay the binding of sTWEAK or sTWEAK variants to Fn14, reporter cells were seeded in tissue culture treated white 96-well plates at 1×10^4 cells/well in 80 μL Opti-MEM media (Invitrogen) and incubated for 48 hr at 37° C. After 48 hr incubation, 20 μL of 5× purified recombinant TWEAK (Peprotech Inc.; 150 ng/mL) in 1 mg/mL BSA in PBS was added to each well and incubated for 5 hr at 37° C. as positive control. Similarly, equivalent amounts of sTWEAK or sTWEAK variant prepared via IVTTas determined using ELISA assay described above was added in 20 μl. […] At the end of 5 hr incubation, the luminescent signal was determined using Bright-Glo assay kit (Promega, Madison, Wis.) according to the manufacturer's instructions.

Fn14 signaling [3] = assay: NF-κB luciferase reporter assay with sTWEAK variants, HEK293 NF-κB luciferase cells overexpressing full length Fn14; type: cell-based, human; settings: HEK293 NF-κB luciferase cells stably overexpressing full length Fn14, 5 hr
Description: as §2

Molecule | effect on TWEAK induced Fn14-NF-κB Luc signal [1] | luciferase expression less than cells stimulated with sTWEAK (Fn14 signaling [2]) [%] | induction of luciferase expression less relative to cells stimulated with sTWEAK (Fn14 signaling [3]) [%] | other results
Cc1ccc(S(=O)(=O)/C=C/C#N)cc1 [BAY11-7082] | dose-dependent manner |  |  | drug inhibition of TNFα activation, Fn14 versus control cell lines (TNFα induction of NF-κB; drug dose-response format, 40 ng/ml TNFα): no significant difference
CC(C(=O)O)c1ccc(N2Cc3ccccc3C2=O)cc1 (stereo not shown) [Indoprofen] | drug sensitivity in a dose-dependent manner |  |  | effect in NF-KB Luc cells induced with TNFα (TNFα induction of NF-κB; 10 μM, TNFα 40 ng/mL for 8 hours): no significant effect
C[C@@H]1C[C@@H]([C@H](O)CC2CC(=O)NC(=O)C2)C(=O)[C@@H](C)C1 [cycloheximide, reference compound] |  |  |  | binding to Fn14 (Fn14): did not show significant binding; binding to TWEAK (TWEAK): did not show significant binding
B1 |  | 87 | 98 | 
B2 |  | 100 | 98 | 
